Assay results published in patent US10065957B2, “Beta-lactamase inhibitors” (Novartis AG, priority 2016, dated 2018).
Where a name gives a salt, the structure may show the parent alone. Read-outs that look alike come from different tables or passages of the source.

Legend:
Format in all cases: cell-based
E. coli (OXA-18) = experiment: microbe, parasite or virus in culture; settings: for MIC of piperacillin with beta-lactamase inhibitor: Pip + BLI at 2 μg/mL
Description: (§1) MICs were determined by the broth microdilution method in accordance with Clinical and Laboratories Institute (CLSI) guidelines. In brief, fresh overnight bacterial cultures were suspended in sterile saline, and adjusted to a 0.5 McFarland turbidity standard. Bacterial suspensions were then diluted in cation adjusted Mueller-Hinton Broth (MHB II; BBL) to yield a final inoculum of approximately 5×10^5 colony-forming units (CFU)/mL. A master plate of antibiotics was prepared at a concentration equivalent to hundred-fold the highest desired final concentration in 100% dimethyl sulfoxide (DMSO). The master antibiotic plate was then diluted by serial twofold dilution with a multichannel pipette. The resulting dilution series of compounds were diluted 1:10 with sterile water or a solution of beta-lactamase inhibitor prepared at a concentration equivalent to eleven-fold the desired final concentration in deionized water leading to a 10% DMSO final concentration. A volume of 10 μL of the drug dilution series was transferred to 96-well assay plates. Assay plates were inoculated with 90 μL of bacterial suspensions and incubated at 35° C. for 20 hrs. The assay plates were read using a microtiter plate reader (Molecular Devices) at 600 nm as well as by visual observation with a reading mirror. The lowest concentration of the compound that prevented visible growth was recorded as the MIC.
(§2) Synergy or potentiation of beta-lactam antibiotics through inhibition of Q-lactamases was assessed against an isogenic panel of E. coli strains, each expressing a unique beta-lactamase, and against clinical strains.
(§3) Construction of E. coli isogenic strains, NB27273-CDY0105 (OXA-18) and NB27273-CDY0048 (TEM-10). […] The gene encoding OXA-18 was then digested with XhoI and EcoRI and inserted into this vector, from which the gene for GIM-1 had been removed with XhoI and EcoRI.
(§4) These final vectors for expression of OXA-18 and TEM-10 were transformed into BW25113 pspB to generate strains NB27273-CDY0105 (expressing OXA-18) and NB27273-CDY0048 (expressing TEM-10).

E. coli (AmpC) = experiment: microbe, parasite or virus in culture; settings: for MIC: Escherichia coli
Description: as §1, with “MIC. Performance of the assay was monitored by testing aztreonam against laboratory quality control strains in accordance with guidelines of the CLSI.” for “MIC.”
as §2
The gene encoding AmpC was PCR amplified from the genome of strain P. aeruginosa PAO1 (NB52019) (GenBank ID U5R279) using primer pair E252 (gccCTCGAGggcgaggccccggcggatcgc) (SEQ ID NO: 17) and E253 (tgaGAATTCtcagcgcttcagcggcacct) (SEQ ID NO: 18).
The PCR products were then digested with XhoI and EcoRI and ligated into similarly digested plasmid pAH63-pstS(BlaP). Plasmid pAH63-pstS(BlaP) is a derivative of plasmid pAH63 (J Bacteriol: 183(21): 6384-6393) made by cloning the TEM-1 (bla) promoter and signal peptide encoding region from plasmid pBAD (J Bacteriol. 1995 July 177(14):4121-30) into plasmid pAH63. This fragment was PCR amplified from pBAD using primer pair E192 (ttcaCTGCAGtgaacgttgcgaagcaacggC) (SEQ ID NO:19) and E194 (TCGAggatcctcgagagcaaaaacaggaaggcaaaatgccg) (SEQ ID NO:20), digested with PstI and BamHI and inserted into similarly digested plasmid pAH63. Therefore, expression of beta-lactamases from pAH63-pstS(BlaP) based constructs is constitutive and the signal sequence is provided to direct these proteins to the periplasm. Plasmid pAH63 based vectors are used for insertion into the genome in single copy, however, to provide higher expression levels to allow more sensitive detection of the susceptibility of compounds to the expressed beta-lactamases, the expression inserts contained in these vectors were moved to the replicative multicopy vector pBAD-Kan (J Bacteriol. 1995 July 177(14):4121-30). To accomplish this, the inserts encompassing the beta-lactamase genes, with the associated TEM promoter and signal sequences, were PCR amplified from their corresponding vectors using primer E268 (ccgTCTAGAcggatggcctttttgcgtttc) (SEQ ID NO:21) and E202 (aatcGAATTCttactgaccattaacgcccaagc) (SEQ ID NO:22) for the KPC2 construct, E204 (aatcGAATTCttaacgctgccagtgctcaatc) (SEQ ID NO:23) for the SHV-12 construct and E203 (aatcGAATTCttacagaccgtcggtgacaatc) (SEQ ID NO:24) for the CTX-M-15 construct. These fragments were then digested with XbaI and EcoRI, and each was inserted into pBAD18-kan that had been digested with the same enzymes to generate multicopy vectors expressing KPC-2, SHV-12 and CTX-M-15, respectively. […]

E. coli (TEM-10) = experiment: microbe, parasite or virus in culture
Description: as §1, §2, §3
From this template DNA, three fragments were generated by PCR using the following primer pairs;
This fragment was then digested with XbaI and EcoRI and inserted into pBAD-kan which was also cut with the same enzymes.
as §4

E. coli (KPC-2) = experiment: microbe, parasite or virus in culture; settings: E. coli (KPC-2)
Description: as §1, §2
(§5) Strain NB27273 (BW25113 pspB::Km^r) was obtained from the Keio transposon insertion collection. The strain has the pspB gene replaced by a kanamycin resistance marker (BW25113 pspB::Km^r). This strain was cured of the transposon in pspB via FLP recombinase using published methodology. The resulting strain, BW25113 pspB, was used as a host for multicopy vectors expressing key beta-lactamases. Multicopy plasmids directing constitutive expression of beta-lactamases were established as follows: Synthetic, codon optimized genes encoding E. coli KPC-2, SHV-12 and CTX-M-15 beta-lactamases were made by DNA2.0 (Palo Alto, Calif.). Each of the synthetic fragments were designed to contain NotI and NcoI restriction sites at their termini, allowing ligation into a NotI/NcoI digested pET28a(+) derivative for protein expression. […] The codon optimized nucleotide sequences and relevant primer recognition information is shown below:
(§6) The PCR products were then digested with XhoI and EcoRI and ligated into similarly digested plasmid pAH63-pstS(BlaP). […] Therefore, expression of beta-lactamases from pAH63-pstS(BlaP) based constructs is constitutive and the signal sequence is provided to direct these proteins to the periplasm. […] These fragments were then digested with XbaI and EcoRI, and each was inserted into pBAD18-kan that had been digested with the same enzymes to generate multicopy vectors expressing KPC-2, SHV-12 and CTX-M-15, respectively. These vectors were transformed into BW25113 pspB to generate strains NB27273-CDY0033 (expressing KPC-2), NB27273-CDY0030 (expressing SHV-12), NB27273-CDY0034 (expressing CTX-M-15) and NB27273-CDY0036 (expressing AmpC). The pBAD18-kan vector also contains the TEM promoter region and signal sequence, (but lacks any intact beta-lactamase genes) and was transformed into BW25113 pspB using standard protocols to generate the control strain NB27273-CDY0026.

E. coli (CTX-M-15) = experiment: microbe, parasite or virus in culture
Description: as §1, §2, §5, §6

E. coli (SHV-12) = experiment: microbe, parasite or virus in culture
Description: as §1, §2, §5, §6

K. pneumoniae ATCC 43816 = experiment: MIC by broth microdilution, BLI alone; settings: Klebsiella pneumoniae, ATCC43816, read-out: Minimal Inhibitory Concentrations (MIC) of selected BLIs
Description: as §1, with “MIC. Performance of the assay was monitored by testing aztreonam against laboratory quality control strains in accordance with guidelines of the CLSI.” for “MIC.”

P. aeruginosa ATCC 27853 = experiment: MIC by broth microdilution, BLI alone; settings: Pseudomonas aeruginosa, ATCC27853, read-out: Minimal Inhibitory Concentrations (MIC) of selected BLIs
Description: as §1, with “MIC. Performance of the assay was monitored by testing aztreonam against laboratory quality control strains in accordance with guidelines of the CLSI.” for “MIC.”

E. coli ATCC 25922 = experiment: MIC by broth microdilution, BLI alone; settings: Escherichia coli, ATCC25922, read-out: Minimal Inhibitory Concentrations (MIC) of selected BLIs
Description: as §1, with “MIC. Performance of the assay was monitored by testing aztreonam against laboratory quality control strains in accordance with guidelines of the CLSI.” for “MIC.”

[1] = system: K. pneumoniae NB29323 (CTX-M-15, OXA-48, VEB-1); settings: aztreonam alone
Description: as §1, with “MIC. Performance of the assay was monitored by testing aztreonam against laboratory quality control strains in accordance with guidelines of the CLSI.” for “MIC.”
as §2

[2] = Escherichia coli, Mero alone, read-out: MIC of meropenem

With C[C@@H](O)[C@H]1C(=O)N2C(C(=O)O)=C(S[C@@H]3CN[C@H](C(=O)N(C)C)C3)[C@H](C)[C@H]12 [Meropenem] the MIC (E. coli (OXA-18); [2]) was at most 0.06 µg/mL, the MIC (E. coli (AmpC); Mero alone, read-out: MIC of meropenem) was at most 0.06 µg/mL and the MIC (E. coli (TEM-10); [2]) was at most 0.06 µg/mL. The MIC (E. coli (KPC-2); [2]) was 1 µg/mL, the MIC (E. coli (CTX-M-15); [2]) was at most 0.06 µg/mL and the MIC (E. coli (SHV-12); [2]) was at most 0.06 µg/mL.

Compound O=C1[C@@H]2[C@@H](C[C@@H]3CN2C(=O)N3OS(=O)(=O)[O-])CN1CCO.[Na+] [Example 4, Sodium (4R,5aS,8aS)-7-(2-hydroxyethyl)-2,8-dioxohexahydro-2H-1,4-methanopyrrolo[3,4-d][1,3]diazepin-3(4H)-yl sulfate] has an MIC (K. pneumoniae ATCC 43816) of over 64 µg/mL, an MIC (P. aeruginosa ATCC 27853) of over 64 µg/mL and an MIC (E. coli ATCC 25922) of over 64 µg/mL.

For Ceftazidime, the MIC of ceftazidime (E. coli (OXA-18); ceftazidime alone) was over 64 µg/mL, the MIC of ceftazidime (E. coli (AmpC); ceftazidime alone) was 4 µg/mL and the MIC of ceftazidime (E. coli (TEM-10); ceftazidime alone) was over 64 µg/mL. It also gave an MIC of ceftazidime (E. coli (CTX-M-15); ceftazidime alone) of 16 µg/mL and an MIC of ceftazidime (E. coli (SHV-12); ceftazidime alone) of over 64 µg/mL.

For O=C1[C@@H]2[C@@H](C[C@@H]3CN2C(=O)N3OS(=O)(=O)[O-])CN1C1CC1.[Na+] [Example 3, Sodium (4R,5aS,8aS)-7-cyclopropyl-2,8-dioxohexahydro-2H-1,4-methanopyrrolo[3,4-d][1,3]diazepin-3(4H)-yl sulfate], the MIC (K. pneumoniae ATCC 43816) was over 64 µg/mL, the MIC (P. aeruginosa ATCC 27853) was over 64 µg/mL and the MIC (E. coli ATCC 25922) was over 64 µg/mL. The “MIC of piperacillin with beta-lactamase inhibitor” value (E. coli (OXA-18)) was 4 µg/mL.

For Nc1nc(/C(=N/OC2(C(=O)O)CC2)C(=O)N[C@@H]2C(=O)N(S(=O)(=O)O)[C@@H]2CN2CCOC2=O)cs1 [Beta-Lactam 5], the “Activity of Beta-Lactam 5” value (E. coli (OXA-18); Beta-Lactam 5 alone) was 0.5 µg/mL, the “Activity of Beta-Lactam 5” value (E. coli (AmpC); Beta-Lactam 5 alone) was 0.25 µg/mL and the “Activity of Beta-Lactam 5” value (E. coli (TEM-10); Beta-Lactam 5 alone) was 2 µg/mL. The “Activity of Beta-Lactam 5” value (E. coli (KPC-2); Beta-Lactam 5 alone) was 0.25 µg/mL, the “Activity of Beta-Lactam 5” value (E. coli (CTX-M-15); Beta-Lactam 5 alone) was 0.125 µg/mL and the “Activity of Beta-Lactam 5” value (E. coli (SHV-12); Beta-Lactam 5 alone) was 0.5 µg/mL.

CCCN1C[C@@H]2C[C@@H]3CN(C(=O)N3OS(=O)(=O)[O-])[C@@H]2C1=O.[Na+] [Example 6, Sodium (4R,5aS,8aS)-2,8-dioxo-7-propylhexahydro-2H-1,4-methanopyrrolo[3,4-d][1,3]diazepin-3(4H)-yl sulfate] gave an MIC (K. pneumoniae ATCC 43816) of over 64 µg/mL, an MIC (P. aeruginosa ATCC 27853) of over 64 µg/mL and an MIC (E. coli ATCC 25922) of over 64 µg/mL.

C[C@H]1[C@H](NC(=O)/C(=N\OC(C)(C)C(=O)O)c2csc(N)n2)C(=O)N1S(=O)(=O)O [Aztreonam] gave an Activity of aztreonam [1] of over 64 µg/mL and an MIC (E. coli (AmpC); read-out: MIC of aztreonam, AZ alone) of 4 µg/mL.

CN1C[C@@H]2C[C@@H]3CN(C(=O)N3OS(=O)(=O)[O-])[C@@H]2C1=O.[Na+] [Example 2, Sodium (4R,5aS,8aS)-7-methyl-2,8-dioxohexahydro-2H-1,4-methanopyrrolo[3,4-d][1,3]diazepin-3(4H)-yl sulfate] was tested, and the MIC (K. pneumoniae ATCC 43816) was over 64 µg/mL, the MIC (P. aeruginosa ATCC 27853) was over 64 µg/mL and the MIC (E. coli ATCC 25922) was over 64 µg/mL. For the same compound, the “MIC of piperacillin with beta-lactamase inhibitor” value (E. coli (OXA-18)) was 4 µg/mL.

With COC[C@@H]1NC(=O)[C@@H]2[C@H]1C[C@@H]1CN2C(=O)N1OS(=O)(=O)[O-].[Na+] [Example 8, Sodium (4R,5aS,6R,8aS)-6-(methoxymethyl)-2,8-dioxohexahydro-2H-1,4-methanopyrrolo[3,4-d][1,3]diazepin-3(4H)-yl hydrogen sulfate] the MIC (K. pneumoniae ATCC 43816) was over 64 µg/mL, the MIC (P. aeruginosa ATCC 27853) was over 64 µg/mL and the MIC (E. coli ATCC 25922) was over 64 µg/mL.

Work on NCCN1C[C@@H]2C[C@@H]3CN(C(=O)N3OS(=O)(=O)O)[C@@H]2C1=O [Example 5, (4R,5aS,8aS)-7-(2-aminoethyl)-2,8-dioxohexahydro-2H-1,4-methanopyrrolo[3,4-d][1,3]diazepin-3(4H)-yl hydrogen sulfate] yielded an MIC (K. pneumoniae ATCC 43816) of over 64 µg/mL, an MIC (P. aeruginosa ATCC 27853) of over 64 µg/mL and an MIC (E. coli ATCC 25922) of over 64 µg/mL.

In the case of O=C1NCC[C@@H]2C[C@@H]3CN(C(=O)N3OS(=O)(=O)[O-])[C@H]12.[Na+] [Example 7, Sodium (4R,5aR,9aS)-2,9-dioxooctahydro-1,4-methanopyrido[3,4-d][1,3]diazepin-3(2H)-yl hydrogen sulfate], the MIC (K. pneumoniae ATCC 43816) is reported as over 64 µg/mL, the MIC (P. aeruginosa ATCC 27853) is reported as over 64 µg/mL and the MIC (E. coli ATCC 25922) is reported as over 64 µg/mL. For the same compound, the “MIC of piperacillin with beta-lactamase inhibitor” value (E. coli (OXA-18)) was 8 µg/mL.
